Data reported in patent US20220305003A1, “METHODS OF TREATING CANCER WITH AN INHIBITOR OF ZNF827” (CHILDREN'S MEDICAL RESEARCH INSTITUTE, priority 2019, published 2022).

What was measured:
Type in all cases: cell-based
[1] = test system: ATR-CHK1 pathway; assay: Western blot of ATR downstream effectors (p-CHK1 S345, p-RPA2 S33, pCHK2); conditions: U-2 OS
Procedure: Protein was extracted from 10^6 cells per sample by vigorous pipetting and incubation at room temperature for 30 minutes in 100 μL of EDTA-free 4× LDS buffer (106 mM Tris-Cl, 141 mM Tris-Base, 40% Glycerol, 2% LDS, 0.075% SERVA Blue G50) supplemented with 2.5% Benzonase® nuclease 25 U/μL (Novagen, Merck Millipore) and 2% beta-mercaptoethanol (Sigma). Following protein extraction, all samples were denatured at 90° C. for 15 minutes before resolving on NuPAGE® Novex® 4-12% Bis-Tris Mini Gels (Invitrogen) with 1×10^5 cells (10 μL) loaded per lane in NuPAGE® MES SDS running buffer (Invitrogen) at 200 V for 50 minutes. Gels were transferred onto a PVDF membrane (Immobilon-P, Millipore) in transfer buffer (190 mM glycine, 25 mM Tris and 10% methanol) at 100 V for 60 minutes. Membranes were stained with Ponceau-S for 30 minutes, de-stained then blocked for 1 hour at room temperature in 5% skim milk dissolved in PBS with 0.1% Tween-20 (PBST) or TBS with 0.1% Tween-20 (TBST) for phosphorylated proteins. Membranes were cut into appropriate segments based on the size markers, with each segment incubated with antibodies for proteins of interest diluted in 0.5% skim milk in PBST/TBST or 5% BSA overnight at 4° C. (Refer to Table 4 for the list of antibodies). Blots were then washed for 3×5 minutes in PBST/TBST followed by incubation for 1 hour at room temperature with appropriate secondary antibodies (See Table 5) diluted 1:5000 in 0.5% skim milk or 5% BSA in PBST/TBST. Blots were washed for 3×5 minutes in PBST/TBST before incubation with SuperSignal West Pico Chemiluminescent Substrate (ThermoFisher Scientific) for 5 minutes at room temperature. Blots were then exposed to a Luminescent Image Analyser (LAS-4000, Fujifilm).
To investigate the precise function of ZNF827 in the ATR pathway, the effect of ZNF827 depletion on the downstream effectors of ATR was examined. To activate ATR, U-2 OS cells were treated with DNA damage and replication stress inducing agents topotecan 2 μg/mL for 24 hours or aphidicolin 1 μM for 20 hours. […] Phosphorylation of CHK2 was not affected by ZNF827 depletion, further supporting that the role of ZNF827 in DNA damage and repair is independent of ATM (FIG. 6d).

[2] = test system: U-2 OS cells; assay: RPA foci by immunofluorescence in U-2 OS cells
Procedure: Topotecan and aphidicolin were used in this study. For experiments where they were used to cause replication stress and DNA damage, cells were treated with topotecan 2 μg/mL for either 1 hour or 24 hours, or aphidicolin 1 μM for 20 hours. For replication fork stalling induction in the PCNA colocalisation experiments, cells were treated with aphidicolin 0.4 μM for 6-8 hours. Topotecan and aphidicolin were dissolved in DMSO. DMSO was used as a control.
Cells were transfected using Lipofectamine RNAiMAX transfection reagent (ThermoFisher Scientific) with an siRNA concentration of […]. For transfection in a 75 cm^2flask, 3 mL reduced serum medium Opti-MEM (Gibco) was combined with 15 μL of 20 μM siRNA, mixed gently to cover the surface area of the flask and incubated at room temperature for 5 minutes. 30 μL of Lipofectamine RNAiMAX transfection reagent was then added to the mixture, and mixed and incubated for a further 15 minutes at room temperature. Meanwhile, cells to be transfected were trypsinised, resuspended in DMEM supplemented with 10% FCS, and counted using a Beckman Coulter cell counter. 0.8-1×10^6 cells in DMEM supplemented with 10% FCS were directly pipetted onto the transfection mixture in the flask, and shaken gently to mix. Additional DMEM supplemented with 10% FCS was added to the flask up to a total volume of 15 mL. Cells were harvested 72 hours post-transfection for knockdown validation and subsequent experiments.
Cells cultured on coverslips were fixed in 2% paraformaldehyde in PBS at room temperature for 10 minutes. Cells fixed on coverslips were rinsed with deionised water, and then permeabilised using KCM buffer (120 mM potassium chloride, 20 mM NaCl, 10 mM Tris, pH 7.5, 0.1% Triton X-100) at room temperature for 10 minutes. Coverslips were blocked with antibody diluent buffer (ABDIL—20 mM Tris-Cl, pH 7.5, 2% BSA, 0.2% fish gelatine, 150 mM NaCl, 0.1% Triton X-100, 0.1% sodium azide) containing 100 μg/mL RNase A at room temperature for one hour. […] Quantitated analysis was conducted by automation with CellProfiler (Broad Institute).

[3] = test system: HT1080 cells; assay: Cell cycle analysis by flow cytometry (propidium iodide)
Procedure: For cell cycle analysis, cells were trypsinised, counted and collected by centrifugation at 1000 rpm for 5 minutes. 1×10^6 cells were resuspended in 0.5 mL PBS, then fixed in 5 mL of ice-cold 70% ethanol drop by drop whilst being gently vortexed. The cells were incubated on ice for 30 minutes then stored at −20° C. for 2-7 days until propidium iodide staining. Prior to propidium iodide (Sigma) staining, the ethanol fixed cells were centrifuged at 300×g for 6 minutes to remove ethanol, washed once with PBS, and resuspended in 0.5 mL PBS per 1×10^6 cells. The fixed cells were treated with 0.5 mg of RNase (Sigma) and 25 μg of propidium iodide at 37° C. for 30 minutes, and then allowed to return to room temperature in the dark for 10 minutes. Labelled cells were analysed using the BD FACSCanto Flow Cytometer (BD Biosciences) containing a blue air cooled 488 nm argon laser to excite propidium iodide. Between 10 000-15 000 events were collected at an approximate flow rate of 200 events/second. The forward scatter (FSC, size) and side scatter (SSC, internal granularity) of each cell was recorded. To discriminate and eliminate cell debris and doublets, the pulse area (FL2-A) was plotted against the pulse width (FL2-W). Doublets identified as cells with 4N DNA content and increasing pulse width were eliminated. A histogram displaying the cell counts against the FL2-A was used to calculate the percentage of cells in each cell cycle phase, as well as the percentage of non-viable cells. Data analysis was conducted using BD FACS Diva software (BD Bioscience).

[4] = agent alone (topotecan 2 μg/mL 24 hours, aphidicolin 1 μM 20 hours, or siRNA knockdown in unchallenged cells)
[5] = agent alone (topotecan 2 μg/mL 24 hr, or 72 hr siRNA knockdown in unchallenged cells)
[6] = agent alone (topotecan 2 μg/mL 1 hr, or 72 hr siRNA knockdown in unchallenged cells)

CC[C@@]1(O)C(=O)OCc2c1cc1n(c2=O)Cc2cc3c(CN(C)C)c(O)ccc3nc2-1 [topotecan]
phosphorylation of CHK1 S345 [1, 4]: became phosphorylated at S345 | phosphorylation of RPA S33 ([1]; topotecan 2 μg/mL 24 hours): phosphorylated at S33 | total nuclear RPA foci [2, 5]: greatly induced RPA foci | cell cycle profile [3, 6]: distinct G2/M arrest

siZNF827: Stealth RNAi siRNA ZNF827HSS135819 duplex oligoribonucleotides (Invitrogen), SEQ ID NO: 12 and 13 (chain 1 GGGCAGUCUUCUGGCUGAGAAAUCA; chain 2 UGAUUUCUCAGCCAGAAGACUGCCC; listed as RNA, further chemistry not given here)
phosphorylation of CHK1 S345 ([1]; 72 hr siRNA knockdown in topotecan- or aphidicolin-treated cells): markedly suppressed | phosphorylation of RPA S33 ([1]; 72 hr siRNA knockdown in topotecan-treated cells): markedly suppressed | phosphorylation of CHK2 ([1]; 72 hr siRNA knockdown, topotecan 2 μg/mL 24 hr or DMSO): not affected | phosphorylation of CHK1 S345 [1, 4]: reduced baseline phosphorylation of CHK1 S345 | total nuclear RPA foci ([2]; 72 hr siRNA knockdown of ZNF827 in topotecan-treated cells (2 μg/mL, 24 hr)): did not cause an observable increase in overall RPA foci | total nuclear RPA foci [2, 5]: substantially increased the total number of nuclear RPA foci | cell cycle profile ([3]; 72 hr siRNA knockdown in conjunction with topotecan 2 μg/mL 1 hr): conspicuous G1 arrest while reducing the G2/M arrest | cell cycle profile [3, 6]: subtle increase in S phase cells accompanied by a reduction in G2/M cells
